Laboratory results: ChEMBL document CHEMBL3822442, “Synthesis and Pharmacological Characterization of Novel Glucagon-like Peptide-2 (GLP-2) Analogues with Low Systemic Clearance” (J Med Chem, 2016)
Active and inactive are the calls of the source. No cut-off for these calls is given here. Non-standard residues stand in square brackets, D forms with d. Residues, ends and D or L forms follow the SMILES beside them. ξ: configuration not given here. ξNle = CCCCC(N)C(=O)O

Key:
Rattus norvegicus = test: Intestinotrophic activity in Sprague-Dawley rat assessed as increase in intestinal growth at 1000 nmol/kg, sc once daily through bolus administration for 5 days relative to control; assay type: functional
[1] = Half life in sc dosed human; assay type: ADME, organism-based; settings: in vivo
[2] = Protein binding in rat plasma at 200 to 1000 ng/ml incubated for 15 mins by LC/MS/MS based ultracentrifugation method; assay type: ADME, cell-free; settings: read-out: PPB (converted)
[3] = target: T1, Glucagon-like peptide 2 receptor (Rattus norvegicus, UniProt Q9Z0W0); test: Agonist activity at rat GLP2R expressed in HEK293 cells after 5 hrs by luciferase reporter gene assay; assay type: cell-based
T1 sequence (Q9Z0W0 whole entry): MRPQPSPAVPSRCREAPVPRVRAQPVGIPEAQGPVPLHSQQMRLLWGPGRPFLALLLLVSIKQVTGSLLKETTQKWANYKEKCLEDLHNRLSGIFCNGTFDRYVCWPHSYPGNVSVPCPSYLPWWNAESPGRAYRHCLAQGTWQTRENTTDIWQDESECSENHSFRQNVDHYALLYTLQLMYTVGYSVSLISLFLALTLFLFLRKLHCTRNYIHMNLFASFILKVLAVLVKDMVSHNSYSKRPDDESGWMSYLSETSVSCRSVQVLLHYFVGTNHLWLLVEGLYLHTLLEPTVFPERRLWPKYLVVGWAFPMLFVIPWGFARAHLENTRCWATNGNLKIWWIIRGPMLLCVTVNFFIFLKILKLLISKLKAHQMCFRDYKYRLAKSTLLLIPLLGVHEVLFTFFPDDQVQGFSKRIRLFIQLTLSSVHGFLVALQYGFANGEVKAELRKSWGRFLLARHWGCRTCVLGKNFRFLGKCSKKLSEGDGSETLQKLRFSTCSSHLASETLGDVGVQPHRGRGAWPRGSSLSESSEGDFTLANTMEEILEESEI

[4] = target: Glucagon-like peptide 1 receptor (Homo sapiens, UniProt P43220); test: Agonist activity at human GLP1R expressed in HEK293 cells after 5 hrs by luciferase reporter gene assay; assay type: cell-based
[5] = Systemic clearance in Sprague-Dawley rat at 0.2 mg/kg, iv through cassette dosing measured up to 300 mins by LC/MS/MS analysis; assay type: ADME, organism-based; settings: in vivo
[6] = target: T2, Glucagon-like peptide 2 receptor (Homo sapiens, UniProt O95838); test: Agonist activity at human GLP2R expressed in HEK293 cells after 5 hrs by luciferase reporter gene assay; assay type: cell-based
T2 sequence (O95838 whole entry): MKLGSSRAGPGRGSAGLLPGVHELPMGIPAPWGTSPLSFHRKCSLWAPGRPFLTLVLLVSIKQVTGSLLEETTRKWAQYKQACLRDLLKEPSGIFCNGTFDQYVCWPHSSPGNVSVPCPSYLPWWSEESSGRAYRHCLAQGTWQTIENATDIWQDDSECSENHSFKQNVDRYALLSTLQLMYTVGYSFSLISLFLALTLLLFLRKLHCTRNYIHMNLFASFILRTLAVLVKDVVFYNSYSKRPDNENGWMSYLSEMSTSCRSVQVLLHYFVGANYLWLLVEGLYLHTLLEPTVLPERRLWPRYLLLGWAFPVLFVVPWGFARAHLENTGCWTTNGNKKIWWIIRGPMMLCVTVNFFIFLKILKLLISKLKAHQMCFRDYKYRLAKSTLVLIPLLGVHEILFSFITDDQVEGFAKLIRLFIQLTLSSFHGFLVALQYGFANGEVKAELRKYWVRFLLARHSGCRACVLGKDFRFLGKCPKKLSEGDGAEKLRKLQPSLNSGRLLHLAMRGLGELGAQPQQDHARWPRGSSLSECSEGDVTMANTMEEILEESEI

HEK293 = test: Selectivity ratio of EC50 for human GLP1R expressed in HEK293 cells to EC50 for human GLP2R expressed in HEK293; assay type: cell-based
[7] = target: Glucagon receptor (Homo sapiens) (UniProt P47871); test: Agonist activity at human GCGR expressed in HEK293 cells up to 1000 nM after 5 hrs by luciferase reporter gene assay; assay type: cell-based
Chain of Glucagon receptor (Homo sapiens) (P47871 whole entry): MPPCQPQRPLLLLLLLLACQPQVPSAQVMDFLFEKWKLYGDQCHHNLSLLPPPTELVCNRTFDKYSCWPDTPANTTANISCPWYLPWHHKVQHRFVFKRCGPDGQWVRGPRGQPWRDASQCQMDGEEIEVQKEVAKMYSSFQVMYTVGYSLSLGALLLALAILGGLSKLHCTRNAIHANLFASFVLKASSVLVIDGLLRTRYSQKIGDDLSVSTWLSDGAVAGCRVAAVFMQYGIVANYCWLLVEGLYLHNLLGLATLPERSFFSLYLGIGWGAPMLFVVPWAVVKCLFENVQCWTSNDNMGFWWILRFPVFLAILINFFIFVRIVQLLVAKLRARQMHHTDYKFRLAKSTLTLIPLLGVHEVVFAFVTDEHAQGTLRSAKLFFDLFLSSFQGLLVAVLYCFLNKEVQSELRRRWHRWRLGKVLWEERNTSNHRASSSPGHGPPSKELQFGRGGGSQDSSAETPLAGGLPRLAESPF

Chain of Glucagon-like peptide 1 receptor (P43220 whole entry): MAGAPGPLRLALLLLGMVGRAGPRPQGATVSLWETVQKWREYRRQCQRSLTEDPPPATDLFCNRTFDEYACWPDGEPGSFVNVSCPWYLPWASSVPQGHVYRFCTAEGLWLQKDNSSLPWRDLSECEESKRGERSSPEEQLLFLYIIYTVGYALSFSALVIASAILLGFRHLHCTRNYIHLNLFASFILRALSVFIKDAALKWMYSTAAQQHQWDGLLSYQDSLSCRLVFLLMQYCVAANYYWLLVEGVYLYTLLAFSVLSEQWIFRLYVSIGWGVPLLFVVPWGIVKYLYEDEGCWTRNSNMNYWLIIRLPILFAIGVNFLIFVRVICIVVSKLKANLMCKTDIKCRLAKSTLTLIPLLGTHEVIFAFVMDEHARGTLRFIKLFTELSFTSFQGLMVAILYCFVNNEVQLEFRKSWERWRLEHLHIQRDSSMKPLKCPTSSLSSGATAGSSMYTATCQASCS

half-life [1] | fraction unbound at 0.25 h [2] | EC50 [3] | EC50 [4] | clearance [5] | EC50 [6] | Activity [7] | SMILES | Activity (Rattus norvegicus) | Ratio EC50 (HEK293)
– | – | – | – | – | – | – | CCCC[C@H](NC(=O)[C@H](CCC(=O)O)NC(=O)[C@H](CC(=O)O)NC(=O)[C@H](CO)NC(=O)[C@H](Cc1ccccc1)NC(=O)[C@H](CO)NC(=O)CNC(=O)[C@H](CC(=O)O)NC(=O)CNC(=O)[C@@H](N)Cc1cnc[nH]1)C(=O)N[C@H](Cc1ccccc1)C(=O)N[C@H](C(=O)N[C@H](C(=O)N[C@@H](CC(C)C)C(=O)N[C@@H](CC(=O)O)C(=O)N[C@@H](CC(C)C)C(=O)N[C@@H](CC(C)C)C(=O)N[C@@H](C)C(=O)N[C@@H](C)C(=O)N[C@@H](CCCNC(=N)N)C(=O)N[C@@H](CC(=O)O)C(=O)N[C@@H](Cc1ccccc1)C(=O)N[C@H](C(=O)N[C@@H](CC(N)=O)C(=O)N[C@@H](Cc1c[nH]c2ccccc12)C(=O)N[C@@H](CC(C)C)C(=O)N[C@H](C(=O)N[C@@H](CCC(N)=O)C(=O)N[C@H](C(=O)N[C@@H](CCCCN)C(=O)N[C@H](C(=O)N[C@H](C(=O)N[C@@H](CC(=O)O)C(N)=O)[C@@H](C)O)[C@@H](C)CC)[C@@H](C)O)[C@@H](C)CC)[C@@H](C)CC)[C@@H](C)CC)[C@@H](C)O [listing 1 of 2 here] | 61.2% | –
3 h | 0.419 | 0.08 nM | > 1000 nM | – | – | – | CC[C@H](C)[C@H](NC(=O)[C@H](Cc1ccccc1)NC(=O)[C@H](CC(=O)O)NC(=O)[C@H](CCCNC(=N)N)NC(=O)[C@H](C)NC(=O)[C@H](C)NC(=O)[C@H](CC(C)C)NC(=O)[C@H](CC(N)=O)NC(=O)[C@H](CC(=O)O)NC(=O)[C@H](CC(C)C)NC(=O)[C@@H](NC(=O)[C@@H](NC(=O)[C@H](CC(N)=O)NC(=O)[C@H](CCSC)NC(=O)[C@H](CCC(=O)O)NC(=O)[C@H](CC(=O)O)NC(=O)[C@H](CO)NC(=O)[C@H](Cc1ccccc1)NC(=O)[C@H](CO)NC(=O)CNC(=O)[C@H](CC(=O)O)NC(=O)CNC(=O)[C@@H](N)Cc1c[nH]cn1)[C@@H](C)O)[C@@H](C)CC)C(=O)N[C@@H](CC(N)=O)C(=O)N[C@@H](Cc1c[nH]c2ccccc12)C(=O)N[C@@H](CC(C)C)C(=O)N[C@H](C(=O)N[C@@H](CCC(N)=O)C(=O)N[C@H](C(=O)N[C@@H](CCCCN)C(=O)N[C@H](C(=O)N[C@H](C(=O)N[C@@H](CC(=O)O)C(=O)O)[C@@H](C)O)[C@@H](C)CC)[C@@H](C)O)[C@@H](C)CC [TEDUGLUTIDE] | 39% | –
– | 0.013 | – | > 1000 nM | 0.84 mL/min/kg | 0.1 nM | inactive | CCCCC(NC(=O)[C@H](CCC(=O)O)NC(=O)[C@H](CC(=O)O)NC(=O)[C@H](CO)NC(=O)[C@H](Cc1ccccc1)NC(=O)[C@H](CO)NC(=O)CNC(=O)[C@H](CC(=O)O)NC(=O)CNC(=O)[C@@H](N)Cc1cnc[nH]1)C(=O)N[C@@H](CC(N)=O)C(=O)N[C@H](C(=O)N[C@H](C(=O)N[C@@H](CC(C)C)C(=O)N[C@@H](CC(=O)O)C(=O)N[C@@H](CC(C)C)C(=O)N[C@@H](CC(C)C)C(=O)N[C@@H](C)C(=O)N[C@@H](C)C(=O)N[C@@H](CCCNC(=N)N)C(=O)N[C@@H](CC(=O)O)C(=O)N[C@@H](Cc1ccccc1)C(=O)N[C@H](C(=O)N[C@@H](CC(N)=O)C(=O)N[C@@H](Cc1c[nH]c2ccccc12)C(=O)N[C@@H](CC(C)C)C(=O)N[C@H](C(=O)N[C@@H](CCC(N)=O)C(=O)N[C@H](C(=O)N[C@@H](CCCCN)C(N)=O)[C@@H](C)O)[C@@H](C)CC)[C@@H](C)CC)[C@@H](C)CC)[C@@H](C)O (stereo partly specified) (H-HGDGSFSDE[ξNle]NTILDLLAARDFINWLIQTK-NH2) | – | > 10000
– | 0.008 | 0.04 nM | > 1000 nM | – | 0.03 nM | – | CCCC[C@H](NC(=O)[C@H](CCC(=O)O)NC(=O)[C@H](CC(=O)O)NC(=O)[C@H](CO)NC(=O)[C@H](Cc1ccccc1)NC(=O)[C@H](CO)NC(=O)CNC(=O)[C@H](CC(=O)O)NC(=O)CNC(=O)[C@@H](N)Cc1cnc[nH]1)C(=O)N[C@H](Cc1ccccc1)C(=O)N[C@H](C(=O)N[C@H](C(=O)N[C@@H](CC(C)C)C(=O)N[C@@H](CC(=O)O)C(=O)N[C@@H](CC(C)C)C(=O)N[C@@H](CC(C)C)C(=O)N[C@@H](C)C(=O)N[C@@H](C)C(=O)N[C@@H](CCCNC(=N)N)C(=O)N[C@@H](CC(=O)O)C(=O)N[C@@H](Cc1ccccc1)C(=O)N[C@H](C(=O)N[C@@H](CC(N)=O)C(=O)N[C@@H](Cc1c[nH]c2ccccc12)C(=O)N[C@@H](CC(C)C)C(=O)N[C@H](C(=O)N[C@@H](CCC(N)=O)C(=O)N[C@H](C(=O)N[C@@H](CCCCN)C(=O)N[C@H](C(=O)N[C@H](C(=O)N[C@@H](CC(=O)O)C(N)=O)[C@@H](C)O)[C@@H](C)CC)[C@@H](C)O)[C@@H](C)CC)[C@@H](C)CC)[C@@H](C)CC)[C@@H](C)O [listing 2 of 2 here] | – | –
